Laboratory results as given in EPA's ToxRefDB 2.

Key:
mouse [1] = settings: Carcinogenicity, cd1, Oral, Feed, dose end: 18 month, group: systemic
dog [2] = settings: Chronic toxicity; beagle; Oral; Feed; dose end: 53 week; group: systemic; systemic / pathology microscopic / stomach / [other] + systemic / pathology microscopic / stomach / inflammation
rat [3] = settings: Combined chronic toxicity/carcinogenicity, wistar, Oral, Feed, dose end: 24 month, group: systemic
dog [4] = settings: Subchronic oral toxicity in nonrodent, beagle, Feed, dose end: 13 week, group: systemic, systemic / clinical chemistry / alanine aminotransferase (alt/sgpt) / alanine aminotransferase (alt/sgpt) + systemic / clinical chemistry / …
rat [5] = settings: Subchronic oral toxicity in rodents, sprague dawley, Gavage/Intubation, dose end: 13 week, group: systemic
rat [6] = settings: Multigenerational reproductive toxicity study, sprague dawley, Oral, Gavage/Intubation, dose end: 2 generation
mouse [7] = settings: Carcinogenicity, cd1, Dermal, Topical, dose end: 18 month, group: systemic
rat [8] = settings: Subchronic dermal toxicity, sprague dawley, Topical, dose end: 90 day, group: systemic
rat [9] = settings: Combined chronic toxicity/carcinogenicity, sprague dawley, Oral, Gavage/Intubation, dose end: 104 week, group: systemic
primate = settings: Chronic toxicity, macaque, Oral, Gavage/Intubation, dose end: 52 week, group: systemic
rat [10] = settings: Subchronic oral toxicity in rodents, sprague dawley, Water, dose end: 90 day, group: systemic
mouse [11] = settings: Combined chronic toxicity/carcinogenicity, b6c3f1, Oral, Water, dose end: 52 week, group: systemic
rat [12] = settings: Multigenerational reproductive toxicity study, sprague dawley, Oral, Feed, dose end: 2 generation
rat [13] = settings: Prenatal developmental toxicity study, sprague dawley, Oral, Gavage/Intubation, dose end: 15 GD
dog [14] = settings: Subchronic oral toxicity in nonrodent, beagle, Feed, dose end: 228 day, group: systemic, systemic / pathology microscopic / kidney / eosinophilic focus + systemic / pathology microscopic / kidney / pigmentation + systemic / …
mouse [15] = settings: Combined chronic toxicity/carcinogenicity, other, Oral, Feed, dose end: 95 week, group: systemic
dog [16] = settings: Subchronic oral toxicity in nonrodent, beagle, Feed, dose end: 184 day, group: systemic, systemic / clinical chemistry / [other] / [other] + systemic / clinical chemistry / aspartate aminotransferase (ast/sgot) / aspartate …
dog [17] = settings: Chronic toxicity; beagle; Oral; Feed; dose end: 52 week; group: systemic; systemic / clinical chemistry / creatinine / creatinine + systemic / clinical chemistry / urea nitrogen / urea nitrogen
rat [18] = settings: Subchronic oral toxicity in rodents, fischer, Feed, dose end: 13 week, group: systemic
[19] = systemic / clinical chemistry / chloride / chloride + systemic / hematology / erythrocyte (rbc) count differential / erythrocyte (rbc) + …
[20] = systemic / clinical chemistry / urea nitrogen / urea + systemic / clinical chemistry / phosphorus / phosphorus
[21] = systemic / pathology microscopic / skeletal muscle / atrophy
[22] = systemic / pathology microscopic / skeletal muscle / atrophy + systemic / in life observation / body weight / body weight + systemic / in …
[23] = group: offspring, developmental / developmental landmark / eye opening / eye opening + developmental / developmental landmark / pinna unfolding / pinna …
[24] = group: parental, systemic / in life observation / clinical signs / salivation
[25] = group: reproductive, reproductive / offspring survival early / litter size / litter size
[26] = systemic / in life observation / body weight / body weight + systemic / in life observation / clinical signs / abnormal movements + systemic…
[27] = systemic / pathology microscopic / skeletal muscle / degeneration
[28] = systemic / pathology microscopic / skeletal muscle / degeneration + systemic / in life observation / body weight / body weight + systemic / …
[29] = systemic / in life observation / body weight / body weight + systemic / in life observation / clinical signs / emesis
[30] = systemic / in life observation / water consumption / water consumption + systemic / organ weight / kidney / relative to body weight + …
[31] = systemic / organ weight / spleen / absolute + systemic / pathology microscopic / liver / hypertrophy
[32] = systemic / organ weight / liver / absolute + systemic / organ weight / liver / relative to body weight + systemic / pathology microscopic / …
[33] = systemic / pathology microscopic / liver / adenoma + systemic / pathology microscopic / liver / hepatocellular carcinoma + systemic / organ …
[34] = group: offspring, developmental / developmental malformation / bone / exencephaly + developmental / developmental malformation / eye / ablepharia
[35] = group: offspring, developmental / developmental malformation / bone / exencephaly + developmental / developmental malformation / eye / ablepharia + …
[36] = group: parental, systemic / pathology microscopic / kidney / degeneration
[37] = group: parental, systemic / pathology microscopic / kidney / degeneration + systemic / in life observation / body weight / body weight + systemic / in life …
[38] = group: developmental, developmental / developmental malformation / bone / brachycephaly + developmental / developmental malformation / bone / delayed ossification…
[39] = group: maternal, systemic / in life observation / clinical signs / [other] + systemic / in life observation / clinical signs / alopecia + systemic / in life …
[40] = systemic / pathology microscopic / kidney / degeneration + systemic / hematology / platelet / platelet + systemic / in life observation / …

With `COC(=O)c1ccc(CNS(C)(=O)=O)cc1S(=O)(=O)NC(=O)Nc1nc(OC)cc(OC)n1` [Mesosulfuron-methyl] the LOAEL (mouse [1]; [19]) was > 1070 mg/kg/day, the NEL (mouse [1]; [19]) was 10.6 mg/kg/day and the NOAEL (mouse [1]; [19]) was ≥ 1070 mg/kg/day. It also gave an LEL (mouse [1]; systemic / clinical chemistry / chloride / chloride + systemic / hematology / leukocyte (wbc) count differential / leukocyte (wbc)) of 103 mg/kg/day, an LEL (dog [2]) of 574 mg/kg/day and an LOAEL (dog [2]) of 574 mg/kg/day. It also gave an NEL (dog [2]) of 155 mg/kg/day, an NOAEL (dog [2]) of 155 mg/kg/day and an LEL (rat [3]; systemic / clinical chemistry / urea nitrogen / urea) of 73.8 mg/kg/day. For the same compound, the LOAEL (rat [3]; [20]) was > 764 mg/kg/day, the NEL (rat [3]; [20]) was 7.46 mg/kg/day and the NOAEL (rat [3]; [20]) was ≥ 764 mg/kg/day. For the same compound, the LEL (dog [4]) was 648 mg/kg/day, the LOAEL (dog [4]) was > 648 mg/kg/day and the NEL (dog [4]) was 348 mg/kg/day. The NOAEL (dog [4]) was ≥ 648 mg/kg/day.

Compound `[Na+].[O-]n1ccccc1=S` [Sodium pyrithione] has an LEL (rat [5]; [21]) of 2 mg/kg/day, an LOAEL (rat [5]; [21]) of 2 mg/kg/day and an NEL (rat [5]; [22]) of 0.5 mg/kg/day. The NOAEL (rat [5]; [22]) was 0.5 mg/kg/day, the LEL (rat [6]; [23]) was 3.5 mg/kg/day and the LOAEL (rat [6]; [23]) was 3.5 mg/kg/day. For the same compound, the NEL (rat [6]; [23]) was 1.5 mg/kg/day, the NOAEL (rat [6]; [23]) was 1.5 mg/kg/day and the LEL (rat [6]; [24]) was 0.5 mg/kg/day. The NEL (rat [6]; [24]) was < 0.5 mg/kg/day, the LOAEL (rat [6]; group: parental, systemic / pathology microscopic / skeletal muscle / atrophy) was 1.5 mg/kg/day and the NOAEL (rat [6]; group: parental, systemic / pathology microscopic / skeletal muscle / atrophy + systemic / in life observation / body weight / body weight + systemic / in …) was 0.5 mg/kg/day. The LOAEL (rat [6]; [25]) was 3.5 mg/kg/day, the NEL (rat [6]; [25]) was 1.5 mg/kg/day and the NOAEL (rat [6]; [25]) was 1.5 mg/kg/day. For the same compound, the LEL (rat [6]; group: reproductive, reproductive / offspring survival early / litter size / litter size + reproductive / reproductive performance / fertility / fertility + …) was 3.5 mg/kg/day, the LEL (mouse [7]; [26]) was 2 mg/kg/day and the NEL (mouse [7]; [26]) was < 2 mg/kg/day. It also gave an LOAEL (mouse [7]; systemic / in life observation / mortality / mortality + systemic / pathology microscopic / liver / hypertrophy) of 20 mg/kg/day, an NOAEL (mouse [7]; systemic / in life observation / mortality / mortality + systemic / pathology microscopic / lymph node / lymphoma malignant + systemic / in …) of 2 mg/kg/day and an LOAEL (rat [8]; [21]) of 15 mg/kg/day. The NEL (rat [8]; [22]) was 5 mg/kg/day, the NOAEL (rat [8]; [22]) was 5 mg/kg/day and the LEL (rat [8]; systemic / pathology microscopic / skeletal muscle / atrophy + systemic / pathology gross / skeletal muscle / reduced size) was 15 mg/kg/day. The LEL (rat [9]; [27]) was 1.5 mg/kg/day, the LOAEL (rat [9]; [27]) was 1.5 mg/kg/day and the NEL (rat [9]; [28]) was 0.5 mg/kg/day. The NOAEL (rat [9]; [28]) was 0.5 mg/kg/day, the LEL (primate; [29]) was 5 mg/kg/day and the LOAEL (primate; [29]) was 25 mg/kg/day. The NEL (primate; [29]) was < 5 mg/kg/day and the NOAEL (primate; systemic / in life observation / body weight / body weight + systemic / in life observation / clinical signs / emesis + systemic / in life …) was 5 mg/kg/day.

For `O=C([O-])C(Cl)(Cl)Cl.[Na+]` [Sodium trichloroacetate], the LOAEL (rat [10]; [30]) was > 355 mg/kg/day, the NOAEL (rat [10]; [30]) was ≥ 355 mg/kg/day and the LEL (rat [10]; [31]) was 4.1 mg/kg/day. For the same compound, the NEL (rat [10]; [31]) was < 4.1 mg/kg/day, the LOAEL (mouse [11]; [32]) was > 267 mg/kg/day and the NOAEL (mouse [11]; [32]) was ≥ 267 mg/kg/day. For the same compound, the LEL (mouse [11]; [33]) was 133 mg/kg/day and the NEL (mouse [11]; [33]) was < 133 mg/kg/day.

`O=C(O)COc1nc(Cl)c(Cl)cc1Cl` [Triclopyr] showed an LEL (rat [12]; [34]) of 25 mg/kg/day, an LOAEL (rat [12]; [34]) of 25 mg/kg/day and an NEL (rat [12]; [35]) of 2 mg/kg/day. It also gave an NOAEL (rat [12]; [35]) of 2 mg/kg/day, an LEL (rat [12]; [36]) of 25 mg/kg/day and an LOAEL (rat [12]; [36]) of 25 mg/kg/day. For the same compound, the NEL (rat [12]; [37]) was 2 mg/kg/day, the NOAEL (rat [12]; [37]) was 2 mg/kg/day and the LEL (rat [12]; [25]) was 250 mg/kg/day. The LOAEL (rat [12]; [25]) was > 250 mg/kg/day, the NEL (rat [12]; [25]) was 25 mg/kg/day and the NOAEL (rat [12]; [25]) was ≥ 250 mg/kg/day. The LEL (rat [13]; [38]) was 200 mg/kg/day, the LOAEL (rat [13]; [38]) was 200 mg/kg/day and the NEL (rat [13]; [38]) was 100 mg/kg/day. It also gave an NOAEL (rat [13]; [38]) of 100 mg/kg/day, an LEL (rat [13]; [39]) of 50 mg/kg/day and an LOAEL (rat [13]; [39]) of 50 mg/kg/day. The NEL (rat [13]; [39]) was < 50 mg/kg/day, the NOAEL (rat [13]; [39]) was < 50 mg/kg/day and the LEL (dog [14]) was 5 mg/kg/day. The LOAEL (dog [14]) was 5 mg/kg/day, the NEL (dog [14]) was < 5 mg/kg/day and the NOAEL (dog [14]) was < 5 mg/kg/day. For the same compound, the NEL (mouse [15]; systemic / in life observation / body weight / body weight + systemic / urinalysis / protein / protein + systemic / urinalysis / specific …) was 2.5 mg/kg/day, the NOAEL (mouse [15]; systemic / organ weight / kidney / absolute + systemic / organ weight / pituitary gland / absolute) was 12.5 mg/kg/day and the LOAEL (mouse [15]; systemic / organ weight / kidney / absolute + systemic / organ weight / pituitary gland / absolute + systemic / in life observation / body …) was 62.5 mg/kg/day. For the same compound, the LEL (mouse [15]; systemic / urinalysis / protein / protein + systemic / clinical chemistry / urea nitrogen / urea nitrogen + systemic / pathology gross / …) was 12.5 mg/kg/day, the LEL (dog [16]) was 2.5 mg/kg/day and the LOAEL (dog [16]) was 2.5 mg/kg/day. The NEL (dog [16]) was 0.5 mg/kg/day, the NOAEL (dog [16]) was 0.5 mg/kg/day and the LEL (dog [17]) was 2.5 mg/kg/day. The LOAEL (dog [17]) was 2.5 mg/kg/day, the NEL (dog [17]) was 0.5 mg/kg/day and the NOAEL (dog [17]) was 0.5 mg/kg/day. It also gave an LOAEL (rat [18]; systemic / pathology microscopic / kidney / degeneration) of 20 mg/kg/day, an NEL (rat [18]; [40]) of 5 mg/kg/day and an NOAEL (rat [18]; [40]) of 5 mg/kg/day. The LEL (rat [18]; systemic / pathology microscopic / kidney / degeneration + systemic / in life observation / body weight / body weight + systemic / in life …) was 20 mg/kg/day.
